For test [1], the species on record is Oryctolagus cuniculus. As to the kind of experiment: Binding affinity to rabbit anti-HRP immunoglobulin G antibody at 5 ug/ml using p-nitrophenyl-phosphate substrate after 15 mins by ELISA.
The species named for test [2] is Homo sapiens. As to the kind of experiment: Binding affinity to human anti-bromelain immunoglobulin E in multiple pollen sensitised patient serum using after 30 mins by ELISA.
The species named for test [3] is Oryctolagus cuniculus. As to the kind of experiment: Binding affinity to rabbit anti-bee venom immunoglobulin G antibody at 5 ug/ml using p-nitrophenyl-phosphate substrate after 15 mins by ELISA. (ELISA stands for enzyme-linked immunosorbent assay.)

Active and inactive are the calls of the source. The rule behind the calls is not given here.

In the case of `O=C(CCCCCO[C@@H]1O[C@H](CO[C@H]2O[C@H](CO)[C@@H](O)[C@H](O)[C@@H]2O)[C@@H](O)[C@H](O[C@@H]2O[C@@H](CO)[C@H](O)[C@@H](O)[C@H]2O)[C@@H]1O[C@@H]1OC[C@@H](O)[C@H](O)[C@H]1O)NCCCCCCNC(=O)CCCC[C@@H]1SC[C@@H]2NC(=O)N[C@@H]21`, the result in test [1] and in test [2] was Active.

Consider `CC(=O)N[C@H]1[C@H](O[C@H]2[C@H](O[C@@H]3O[C@@H](C)[C@@H](O)[C@@H](O)[C@@H]3O)[C@@H](NC(C)=O)[C@H](OCCCCCC(=O)NCCCCCCNC(=O)CCCC[C@H]3[C@H]4NC(=O)N[C@H]4CS3(=O)=O)O[C@@H]2CO[C@H]2O[C@H](C)[C@H](O)[C@H](O)[C@H]2O)O[C@H](CO)[C@@H](O)[C@@H]1O`, for which the outcome in test [3] was inactive. Besides, the result in test [1] and in test [2] was Active.

Consider `O=C(CCCCCO[C@@H]1O[C@H](CO[C@H]2O[C@H](CO)[C@@H](O)[C@H](O)[C@@H]2O)[C@@H](O)[C@H](O)[C@@H]1O[C@@H]1OC[C@@H](O)[C@H](O)[C@H]1O)NCCCCCCNC(=O)CCCC[C@@H]1SC[C@@H]2NC(=O)N[C@@H]21`, for which the result in test [1] was Active.

Regarding `CC(=O)N[C@H]1[C@H](O[C@H]2[C@H](O[C@@H]3O[C@@H](C)[C@@H](O)[C@@H](O)[C@@H]3O)[C@@H](NC(C)=O)[C@H](OCCCCCC(=O)NCCCCCCNC(=O)CCCC[C@H]3[C@H]4NC(=O)N[C@H]4CS3(=O)=O)O[C@@H]2CO)O[C@H](CO)[C@@H](O)[C@@H]1O`, the result in test [1] and in test [2] was Active.

(Values after ChEMBL document CHEMBL1667825, “Synthesis of cross-reactive carbohydrate determinants fragments as tools for in vitro allergy diagnosis” (Bioorg Med Chem, 2011).)
